pIC50: −log10 of the molar value. Where two headings read alike, the source gives them in different places.

This note sets out measurements from US20230339968A1, “KRAS Gl2C INHIBITORS” (Eli Lilly and Company, priority 2019, published 2023).

The test system of one experiment is KYSE-410 (esoph). In words: CellTiterGlo Cell Proliferation Assay (2D), KYSE-410. The experiment is classed as cell-based. The settings on record: Homo sapiens, 96 hours. How it is done:
(§1) The purpose of this assay is to evaluate the growth of KRas G12C mutant tumor lines following treatment with a test compound. A panel of tumor cell lines harboring KRas G12C or other KRas mutations are collected (Table 25). All cell lines are from ATCC or other sources indicated.
(§2) Typically cells are cultured in RPMI1640 or Dulbecco's modified Eagle's medium (DMEM, GIBCO) supplemented with 10% FBS (GIBCO, Invitrogen). […] The cells are treated with compound for 96 hours, and then are analyzed for viability using the CellTiterGlo® Luminescent Cell Viability Assay® (Promega #G7572 for 2D) according to manufacturer's instructions and an EnVision™ plate reader. Nonlinear regression and sigmoidal dose-response curves are used to calculate the half maximal inhibitory concentration (IC50) with GraphPad Prism 4® software.
A general note: In ATP-based viability assays light output follows the ATP content of the culture.

The test system of a further experiment is H1792 (lung). In words: CellTiterGlo Cell Proliferation Assay (2D), H1792. The settings on record: Homo sapiens, NCI-H1792, 96 hours. The experiment is classed as cell-based. How it is done:
as §1, §2

A further experiment has as its system H23 (lung). The experiment is described as follows: CellTiterGlo Cell Proliferation Assay (2D), H23. The experiment is classed as cell-based. The settings on record: 96 hours. How it is done:
as §1, §2

The test system of the next experiment is SW837 (rectum). In words: CellTiterGlo Cell Proliferation Assay (2D), SW837. To be noted: Homo sapiens, 96 hours. The experiment is classed as cell-based. How it is done:
as §1, §2

The target of a further experiment is active KRas (Homo sapiens, UniProt P01116, G12C). In words: In vivo target inhibition, active KRas ELISA of tumor lysates, lung cancer H358 xenograft model. Further details: from tissue; host or cells: H358 xenograft tumours grown subcutaneously in nude female mice. To be noted: NCI-H358, mouse, H358 model, single dose 30 mg/kg, read-out: % Inhibition of Active Ras. How it is done: (§3) The purpose of these assays is to evaluate in vivo target inhibition of an orally administered test compound. Human lung cancer H358 cells, or pancreatic cancer MiaPaca-2 cells, are implanted into nude mice xenograft tumor models. H358 or MiaPaca-2 cells (10×106 in a 1:1 Matrigel® mix, 0.2 mL total volume) are implanted by subcutaneous injection in hind leg of nude female mice (Harlan Laboratories). […] Treatment is initiated with oral administration (gavage) of a test compound or vehicle (20% Captisol®, 25 mM phosphate, pH 2.0 in 0.2 mL) when the tumor size reaches approximately 300 mg.
Chain of active KRas (P01116 1-188 isoform P01116-2 G12C): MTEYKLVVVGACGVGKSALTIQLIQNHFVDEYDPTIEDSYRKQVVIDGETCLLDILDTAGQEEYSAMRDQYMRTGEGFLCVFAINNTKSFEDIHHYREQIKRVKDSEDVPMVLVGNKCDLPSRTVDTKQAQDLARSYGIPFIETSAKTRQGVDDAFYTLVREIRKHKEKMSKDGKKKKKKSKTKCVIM
(§4) For in vivo target inhibition and PD analysis, tumors are ground by mortar and pestle on dry ice and tumor fragments are added to 800 μL of lysis buffer containing 1% Triton™ X-100, 25 mM Tris pH7.5, 150 mM sodium chloride, 1 mM EDTA, and 1 mM EGTA with Halt protease and phosphatase inhibitor cocktail (Thermo Scientific, cat. no. 1861281) in lysing matrix D tubes (MP Biomedical®, cat. no. 6913-500) with one additional large bead (MP Biomedical® ¼″ ceramic sphere bead cat. no. 6540-412) per tube. Tumor fragments are homogenized in a Thermo Bio101® fast prep (FP120) at setting 4 for […] while cold for a total of 2 times. Lysates are spun at 14,000 rpm for 10 minutes at 4° C. to clarify. Protein estimation is done on the lysate supernatant using a BioRad Dc® protein assay and lysates are diluted in complete lysis/binding buffer from the Ras GTPase Chemi ELISA Kit® (Active Motif, cat. no. 52097). The active KRas ELISA is performed as follows: glutathione-coated ELISA wells are incubated with diluted RAF1-GST in complete lysis/binding buffer for 1 hour at 4° C. with gentle agitation. Wells are washed 3 times with wash buffer and 100 μg of lysates are added to each well and incubated at ambient temperature for 1 hour with mild agitation. The wells are washed an additional 3 times, then primary antibody, diluted in antibody binding buffer, is added to each well. The plates are incubated for 1 hour. The wells are washed 3 more times before adding HRP-conjugated secondary antibody, diluted in antibody binding buffer, to each well. The plates are incubated at ambient temperature for 1 hour. ELISA wells are washed 4 times, chemiluminescent reagent is added and then luminescence is read. For pERK Meso Scale Discovery ELISA, 25 μg of protein containing 0.1% SDS is used; Meso Scale Discovery Whole Cell Lysate Kit for pERK is provided by Meso Scale Discovery.
(§5) The purpose of this assay is to evaluate the dose dependent in vivo target inhibition and pharmacodynamic effects in a lung cancer model. The test compound is dosed in lung cancer H358 mouse xenograft model at a dose range from 12.5 to 100 mg/kg. The tumor samples are collected 8 hours post a single dose. The tumor lysates are prepared and the inhibition of pERKand active KRas is measured as described above.
(§6) The purpose of this assay is to evaluate the time dependent in vivo target inhibition and pharmacodynamic effects in a lung cancer model. […] After a single dose, the tumor samples are harvested at 2, 4, 8, 12 and 24 hour post doing. The tumor lysates are prepared and the inhibition of pERK and active KRas is measured as described above.
(In general: In an ELISA, binding on a coated surface is turned into a signal by an enzyme label.)

The test system of the next experiment is pERK. In words: In vivo pharmacodynamic effect, pERK Meso Scale Discovery ELISA of tumor lysates, lung cancer H358 xenograft model. Further details: species or system mouse. The settings on record: H358 model, single dose 30 mg/kg; for inhibition at 30 mg/kg: Mus musculus, read-out: % inhibition of pERK. How it is done:
as §3, §4, §5, §6

The next experiment has as its system UM-UC-3 (bladder). In words: CellTiterGlo Cell Proliferation Assay (2D), UM-UC-3. In kind it is cell-based. The settings on record: Homo sapiens, UMUC3, 96 hours. How it is done:
as §1, §2

In the case of `C=CC(=O)N1CCN2C(=O)c3cc(F)c(-c4ccc(F)c5sc(N)c(C#N)c45)c(Cl)c3OC[C@H]2C1` [Example 36, 4-[(4aR)-7-Chloro-9-fluoro-11-oxo-3-prop-2-enoyl-2,4,4a,5-tetrahydro-1H-pyrazino[2,1-c][1,4]benzoxazepine-8-yl]-2-amino-7-fluoro-benzothiophene-3-carbonitrile], the pIC50 is < 5.00 in the experiment on KYSE-410 (esoph); 5.69 in the experiment with H1792 (lung); 7.00 with H23 (lung); 6.24 in the experiment with SW837 (rectum); 5.73 in the experiment on UM-UC-3 (bladder). Further, the inhibition at 10 µM came out at 43.1% with KYSE-410 (esoph) (10 μM); 97.4% in the experiment on H1792 (lung) (10 μM); 96.7% in the experiment with H23 (lung) (10 μM); 58.7% with SW837 (rectum) (10 μM); 91.6% with UM-UC-3 (bladder) (10 μM). Also, the inhibition at 30 mg/kg came out at 72.6% on active KRas (2 h); 72.4% at active KRas (4 h); 88.5% at active KRas (8 h); 43.2% on active KRas (24 h); 79.7% in the experiment on pERK (NCI-H358, 2 h, 2 h); 84.2% with pERK (NCI-H358, 4 h, 4 h). Also, the inhibition at 30 mg/kg in the experiment with pERK (NCI-H358, 8 h, 8 h) was 82.6%; with pERK (NCI-H358, 24 h, 24 h) it was 48.8%. In the experiment on pERK (8 h, 30 mg/kg), the “% inhibition of pERK” value was 86.9%.

One may read the pIC50 as the IC50 on a negative log10 scale, so that one unit is a factor of ten. Read a low pIC50 as a high IC50. One may read the inhibition as the percentage by which the read-out fell short of the control.
